US20250144186A1, “NOVEL THERAPEUTIC USES OF GARDNERELLA ENDOLYSINS” (priority 2022, published 2025)
Values after ≈ are worked out from the molar mass of the structure shown. Values joined by “and” are separate entries in the source; they are usually repeats but may differ in a detail not shown here. Equal entries are not always repeated. Where two headings read alike, the source gives them in different places.

Legend:
[1] = test system: passaged G. piotii; assay: MIC on strains passaged with MDZ-OH; type: cell-based, Gardnerella piotii; settings: Gardnerella piotii, 48 h, read-out: MIC passaged
Procedure: (§1) The minimum inhibitory concentration (MIC), which is a standard measure of the activity of antimicrobials, was determined according to the Clinical and Laboratory Standards Institute protocol (2018) Methods for Antimicrobial Susceptibility Testing of Anaerobic Bacteria (Carpenter et al., 2018). […] Controls for growth in the absence of antimicrobials were also included. OD600 was recorded by a microplate reader (Tecan, Grodig, Austria) after incubation at 37° C. for 48 h or, for some fast-growing strains, after incubation for 24 h. Absence of growth was defined as OD600≤0.14. […] MIC readout and MBC99.5 spotting were performed after 72 h incubation for H2B10B11. MBC99.5 is the minimum concentration of an antibacterial agent that results in bacterial death of all cells in suspension up to a defined limit of detection, resulting in killing of at least 99.5% of bacteria.
The final volume of the reaction was 100 µL and the reactions were performed in triplicate in 384-well plates. The OD600 was measured using a microplate reader (Tecan, Grodig, Austria) to generate timepoint 0 h baseline values. […] In each round, the input CFU/mL was determined by quantitative plating.
The susceptibility of Gardnerella strains before and after 8 to 9-times passaging with sub-MIC concentrations of MZD or MDZ-OH is shown in Table 4 below. All MICs determined after 48 h of incubation.

[2] = test system: Gardnerella vaginalis; assay: microbe, parasite or virus in culture; type: cell-based; settings: Gardnerella vaginalis
Procedure: as §1, with “H2B10B11.” for “H2B10B11. MBC99.5 is the minimum concentration of an antibacterial agent that results in bacterial death of all cells in suspension up to a defined limit of detection, resulting in killing of at least 99.5% of bacteria.”
(§2) However, topical intravaginal antibiotic administration is recommended for BV therapy, which allows to reach concentrations of active ingredients in the mg/mL range. […] Abbreviations: n.d., not determined; SJHB, St. Jan Hospital Bruges.
(§3) MIC90 is defined as the MIC value for 90% of the tested strains. For PM-477 (H2B10), the resistance breakpoint is not defined, therefore a “% resistant” is not defined (n.d.).

[3] = test system: Gardnerella swidsinskii; assay: microbe, parasite or virus in culture; type: cell-based
Procedure: as §1, with “H2B10B11.” for “H2B10B11. MBC99.5 is the minimum concentration of an antibacterial agent that results in bacterial death of all cells in suspension up to a defined limit of detection, resulting in killing of at least 99.5% of bacteria.”
as §2, §3

[4] = test system: passaged G. swidsinskii biofilm; assay: MBEC on biofilms of passaged strains; type: cell-based, Gardnerella swidsinskii
Procedure: (§4) Gardnerella spp. (see figures for strain specification) was resuspended in brain heart infusion broth supplemented with 2% (w/v) gelatin, 0.5% yeast extract (w/v), 0.1% starch (w/v) and 0.25% glucose (w/v) (sBHIG). Passaged strains were resuspended in unbuffered NYCB supplemented with 1% glucose (w/v) (sNYCB). The OD600 was set to 0.1 (approx. 10^7-10^8 CFU/mL) and the cell suspension was diluted 1:10 in growth medium as input for biofilm formation. A total of 200 μL of the respective bacterial suspensions was added to 96-well flat bottom plates (tissue-culture treated, Sigma-Aldrich). The biofilms were grown under anaerobic conditions at 37° C. for 40 to 72 hours, depending on the isolate. Subsequently, the supernatant was removed, and the biofilm was treated with antimicrobials dissolved in sBHIG (at pH 5 for treatment with PM-477 (H2B10), and unbuffered for treatment with antibiotics) in 100 μL and incubated anaerobically at 37° C. for another 24 hours. After the treatment, the biofilms were washed twice with 200 μL 1x PBS and dissolved by vigorous pipetting (40x up and down). Serial dilutions of the dissolved cells were spotted on chocolate agar plates. The plates were incubated anaerobically for two to three days and the minimum biofilm eradication concentration (MBEC) of the endolysin or the antibiotics in use were calculated.
(§5) All MICs determined after 48 h of incubation.

[5] = test system: passaged G. piotii biofilm; assay: MBEC on biofilms of passaged strains; type: cell-based, Gardnerella piotii; settings: G. piotii (UGent 18.01T) passaged with MDZ-OH
Procedure: as §4, §5

[6] = test system: All Gardnerella; assay: MIC assessment in suspension, panel of 22 strains; type: cell-based, Gardnerella spp.; settings: for MIC90: N=22 strains
Procedure: as §1, with “H2B10B11.” for “H2B10B11. MBC99.5 is the minimum concentration of an antibacterial agent that results in bacterial death of all cells in suspension up to a defined limit of detection, resulting in killing of at least 99.5% of bacteria.”
as §2, §3

[7] = test system: G. vaginalis biofilm; assay: MBEC on pre-formed biofilms of ancestor isolates; type: cell-based, Gardnerella vaginalis
Procedure: as §4
(§6) Gardnerella dominated biofilms covering the human vaginal epithelial cells are now generally considered as a hallmark of BV. Thus, it was tested how effective antibiotics and PM-477 (H2B10) are in penetrating and killing in vitro pre-formed, 40-72 h old biofilms of various Gardnerella strains.

[8] = test system: G. swidsinskii biofilm; type: cell-based, Gardnerella swidsinskii
Procedure: as §4, §6

Cc1ncc([N+](=O)[O-])n1CCO [MDZ, metronidazole]
MIC [1]: > 2050 µg/mL | MIC90 [2]: 64 µg/mL (≈ 374 µM) | MIC ([2]; 48 h, read-out: MIC before passaging, G. vaginalis (ATCC 14018T), 48 h incubation): 8 µg/mL (≈ 46.7 µM) | MIC ([2]; 48 h, read-out: MIC before passaging, G. vaginalis (UGent 09.07), 48 h incubation): 64 µg/mL (≈ 374 µM) | MIC ([2]; 48 h, read-out: MIC before passaging, G. vaginalis (UGent BV50), 48 h incubation): 32 µg/mL (≈ 187 µM) | MBC ([2]; ATCC14018, 24 h, read-out: MBC99.5, G. vaginalis (Gv9) ATCC 14018(T), reduces CFU by 99.5% within 24 h): 16 µg/mL (≈ 93.5 µM) | MIC ([2]; ATCC14018, G. vaginalis (Gv9) ATCC 14018(T), suspension): 8 µg/mL (≈ 46.7 µM) | MIC ([2]; G. vaginalis (BV50) UGent BV50.1, suspension): 32 µg/mL (≈ 187 µM) | MIC ([2]; G. vaginalis (FB049) UGent FB049-01, suspension): 16 µg/mL (≈ 93.5 µM) | MIC ([2]; G. vaginalis (FB061) UGent FB061-03, suspension, read-out: MIC): 8 µg/mL (≈ 46.7 µM) | MBC ([2]; G. vaginalis (FB061) UGent FB061-03, read-out: MBC99.5): 32 µg/mL (≈ 187 µM) | MIC ([2]; G. vaginalis (Gv1) UGent 09.07, suspension, read-out: MIC): 64 µg/mL (≈ 374 µM) | MBC ([2]; G. vaginalis (Gv1) UGent 09.07, read-out: MBC99.5): 512 µg/mL (≈ 2990 µM) | MIC ([2]; G. vaginalis (Gv5) UGent 09.01, suspension, read-out: MIC): 8 µg/mL (≈ 46.7 µM) | MBC ([2]; G. vaginalis (Gv5) UGent 09.01, read-out: MBC99.5): 512 µg/mL (≈ 2990 µM) | MIC ([2]; G. vaginalis (Gv8) UGent 25.49, suspension, read-out: MIC): 8 µg/mL (≈ 46.7 µM) | MBC ([2]; G. vaginalis (Gv8) UGent 25.49, read-out: MBC99.5): 32 µg/mL (≈ 187 µM) | MIC Range ([2]; N=8 strains): 8 to 64 µg/mL | MBC ([2]; read-out: MBC99.5, G. vaginalis (BV111) UGent BV111.5): 64 µg/mL (≈ 374 µM) | MBC ([2]; read-out: MBC99.5, G. vaginalis (FB049) UGent FB049-01): 64 µg/mL (≈ 374 µM) | MBC99.5 ([3]; G. swidsinskii (BV7) UGent BV7.1): >512 µg/mL | MIC90 ([3]; Gardnerella swidsinskii): > 256 µg/mL | MIC ([3]; Gardnerella swidsinskii, 48 h, read-out: MIC before passaging, G. swidsinskii (GS 9838-1T), 48 h incubation): 256 µg/mL (≈ 1500 µM) | MIC ([3]; Gardnerella swidsinskii, 48 h, read-out: MIC before passaging, G. swidsinskii (UGent BV 7.1), 48 h incubation): 256 µg/mL (≈ 1500 µM) | MIC ([3]; Gardnerella swidsinskii, G. swidsinskii (BV7) UGent BV7.1, suspension, read-out: MIC): 256 µg/mL (≈ 1500 µM) | MIC ([3]; Gardnerella swidsinskii, G. swidsinskii (BV139) UGent BV139.3, suspension, read-out: MIC): 256 µg/mL (≈ 1500 µM) | MIC ([3]; Gardnerella swidsinskii, G. swidsinskii (Gs23) GS 10234, suspension): 64 µg/mL (≈ 374 µM) | MIC ([3]; Gardnerella swidsinskii, G. swidsinskii (Gs24) GS 9838-1(T), suspension, read-out: MIC): 256 µg/mL (≈ 1500 µM) | MBC ([3]; Gardnerella swidsinskii, read-out: MBC99.5, G. swidsinskii (BV139) UGent BV139.3): 256 µg/mL (≈ 1500 µM) | MBC ([3]; Gardnerella swidsinskii, G. swidsinskii (Gs24) GS 9838-1(T), read-out: MBC99.5): > 512 µg/mL | MBEC passaged ([4]; G. swidsinskii (GS 9838-1T) passaged with MDZ-OH): >2048 µg/mL | MBEC passaged ([4]; G. swidsinskii (UGent BV 7.1) passaged with MDZ-OH): >2048 µg/mL | MBEC passaged [5]: >2048 µg/mL | N resistant (%) ([6]; N=22, resistance ≥32 μg/mL MDZ): 59% and 60% | N resistant ([6]; N=22, resistance ≥32 μg/mL MDZ, ≥8 μg/mL CLI): 13 | MIC90 [6]: >256 µg/mL | MIC90 ([6]; read-out: MIC90): > 256 µg/mL | Eradication of biofilm-grown cells (FIG. 1) ([7]; G. vaginalis (ATCC14018), biofilm grown 40 h, treated 24 h): can be eradicated | MBEC ([7]; ancestor G. vaginalis UGent FB049, pre-formed biofilm): 2 to 8 µg/mL | MBEC ([8]; ancestor G. swidsinskii GS 9838-1, pre-formed biofilm): 32 µg/mL | MBEC ([8]; ancestor G. swidsinskii UGent BV 7.1, pre-formed biofilm): 32 µg/mL
